Test results reported in paper PMC5785474, “Application of Sustainable Natural Resources in Agriculture: Acaricidal and Enzyme Inhibitory Activities of Naphthoquinones and Their Analogs against Psoroptes cuniculi” (Scientific Reports, 2018).

Target: acetylcholinesterase (AChE)
Test: AChE activity in crude mite homogenate supernatant, acetylthiocholine/DTNB assay at […] nm
Format: biochemical, Psoroptes cuniculi

Row | SMILES | IC50 (ppm)
1 | O=C1C=CC(=O)c2c(O)cccc21 [compound 1, Juglone] | 14.81
2 | CC1=CC(=O)c2c(O)cccc2C1=O [compound 2, Plumbagin] | 29.87
